Experimental data from paper PMC4867616, “Imaging of Cerebral Amyloid Angiopathy with Bivalent ^99mTc-Hydroxamamide Complexes” (Scientific Reports, 2016).
Values joined by “and” are separate entries in the source; they are usually repeats but may differ in a detail not shown here. Equal entries are not always repeated. Where two headings read alike, the source gives them in different places.

Tests used:
[1] = target: T1, Aβ depositions in Tg2576 mouse brain (Homo sapiens, UniProt P05067); test: Ex vivo autoradiography using Tg2576 and wild-type mice; type: in vivo; conditions: for Selectivity for vascular versus parenchymal amyloid aggregates (ex vivo autoradiography, thioflavin-S and anti-CD31 staining): Tg2576 mice, 30 min postinjection
T1 construct: Aβ(1–40) aggregates, the predominant amyloid found in CAA; tissue Taconic Farms, Inc. (New York, USA); host or cells: brain of living female Tg2576 transgenic mice
Protocol: Tg2576 transgenic mice (female, 29 months old) and wild-type mice (female, 29 months old) were used as the AD model and age-matched control, respectively. A saline solution (150 μL) of [^99mTc]SB2A or [^99mTc]BT2B (18.5 MBq) containing EtOH (30 μL) was injected through the tail vein. The mice were sacrificed at 30 min postinjection. The brains were immediately removed, embedded in carboxymethylcellulose solution and then frozen in a dry ice/hexane bath. Sections of 30 μm were cut and exposed to a BAS imaging plate (Fuji Film) overnight. Autoradiographic images were obtained using a BAS5000 scanner system (Fuji Film). After autoradiographic examination, the same sections were stained by thioflavin-S to confirm the presence of Aβ depositions. For thioflavin-S fluorescent staining, the sections were immersed in a 100 μM thioflavin-S solution containing 50% EtOH for 3 min, washed in 50% EtOH for 1 min two times, and examined using a microscope (Keyence Corp.) equipped with a GFP-BP filter set. Additionally, the same sections were immunostained by anti-CD31 antibody to confirm the presence of endothelial cells. For immunohistochemical staining of CD31, the sections were incubated in PBST for 5 min three times, and incubated with anti-CD31 primary antibody (SZ31; Abcam, Cambridgeshire, U.K., dilution 1:50) at room temperature overnight. After three 5-min incubations in PBST, anti-rabbit secondary antibody (Dako, California, USA) incubation was carried out at room temperature for 3 h. Subsequently, the sections were incubated in PBST for 5 min three times, and incubated with diaminobenzidine (Merck) as a chromogen for 5 min. After washing with water, the sections were observed under a microscope (Keyence Corp.).
Ex vivo autoradiography using Tg2576 and wild-type mice. Tg2576 transgenic mice (female, 29 months old) and wild-type mice (female, 29 months old) were used as the Alzheimer’s model and age-matched control, respectively. A saline solution (150 µL) of [^99mTc]BT2B (18.5 MBq) containing ethanol (30 µL) was injected through the tail vein. […]

[2] = target: T2, CAA in Tg2576 mice (Homo sapiens, UniProt P05067); test: SPECT/CT imaging in Tg2576 and wild-type mice; type: in vivo; conditions: 30 min postinjection
T2 construct: Aβ(1–40) aggregates, the predominant amyloid found in CAA; tissue Taconic Farms, Inc. (New York, USA); host or cells: brain of living female Tg2576 transgenic mice
Protocol: SPECT/CT imaging. Tg2576 transgenic mice (female, 27 or 30 months old) and wild-type mice (female, 27 or 30 months old) were used as the Alzheimer’s model and age-matched control, respectively. A saline solution (200 μL) of [^99mTc]SB2A (29.6-55.5 MBq) containing EtOH (40 μL) was injected directly into the tail vein. At 30 or 120 min postinjection, SPECT and CT images with the brain region as the ﬁeld of view were collected using the U-SPECT-II/CT system (MILabs, Utrecht, Netherlands) with 0.6-mm pinhole collimators (SPECT conditions, 30 min × 2 frames; CT conditions, accurate full angle mode in 65 kV/615 µA). The mouse was maintained under isoflurane anesthesia, while SPECT and then CT image data were collected. SPECT images were reconstructed by the OSEM method (16 subsets, 6 iterations) with a 0.4-mm Gaussian ﬁlter.

[3] = normal mice, i.v., mean (SD), 5 animals, cited from earlier work

T1 sequence (P05067 672-711 limits assumed): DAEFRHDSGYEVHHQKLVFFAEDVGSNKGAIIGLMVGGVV
T2 sequence (P05067 672-711 limits assumed): as above

Row | Ex vivo autoradiography labeling of Aβ depositions in transgenic mice ([1]; Tg2576 mice (29 months old) vs wild-type, i.v., brains removed at 30 min postinjection) | Distribution in brains of Tg2576 versus wild-type mice (in vivo SPECT/CT) [2] | SMILES | Selectivity for vascular versus parenchymal amyloid aggregates (ex vivo autoradiography, thioflavin-S and anti-CD31 staining) [1] | Biodistribution of radioactivity, Blood ([3]; 2 min after injection) | Biodistribution of radioactivity, Brain ([3]; 2 min after injection) | Biodistribution of radioactivity, Blood ([3]; 10 min after injection) | Biodistribution of radioactivity, Brain ([3]; 10 min after injection) | Biodistribution of radioactivity, Blood ([3]; 30 min after injection) | Biodistribution of radioactivity, Brain ([3]; 30 min after injection) | Biodistribution of radioactivity, Blood ([3]; 60 min after injection) | Biodistribution of radioactivity, Brain ([3]; 60 min after injection)
1 | intensive labeling of Aβ depositions | not differentially distributed | CN(C)c1ccc(/C=C/c2ccc(C3=N[O][99Tc-]4(=[O])([NH]3)[NH2+]C(c3ccc(/C=C/c5ccc(N(C)C)cc5)cc3)=N[O]4)cc2)cc1 (single isomer, unassigned) [[^99mTc]SB2A] | selectively bound to amyloid aggregates deposited along vessels but not within parenchyma | 14.28 (1.90) % injected dose per gram | 0.28 % injected dose per gram and 0.28 (0.03) % injected dose per gram | 7.50 (0.51) % injected dose per gram | 0.17 (0.02) % injected dose per gram | 5.13 % injected dose per gram and 5.13 (0.57) % injected dose per gram | 0.12 (0.01) % injected dose per gram | 4.17 (0.24) % injected dose per gram | 0.11 (0.01) % injected dose per gram
2 | – | – | CN(C)c1ccc(-c2nc3ccc(C4=N[O][99Tc-]5(=[O])([NH]4)[NH2+]C(c4ccc6nc(-c7ccc(N(C)C)cc7)sc6c4)=N[O]5)cc3s2)cc1 [[^99mTc]BT2B] | specific detection of CAA | – | – | – | – | – | – | – | –
